Data as given in ChEMBL document CHEMBL6078695, “Design, synthesis, and biological evaluations of 5-aryl-pyrazole-3-carboxamide derivatives as selective CB2 receptor agonists for the treatment of colitis” (Eur J Med Chem, 2025).
Activity calls are given as the source filed them. The calls are words filed in the database; no cut-off is given here.

test system: Mus musculus; experiment: Antiinflammatory activity against DSS-induced colitis C57/BL6 mouse model assessed as reduction in inflammatory infiltration at 10 to 30 mg/kg, po administered for 9 days by H and E staining based analysis; type: functional, organism-based; details: dose 10-30 mg/kg, time 9.0 day

Compound	Activity
CCCCn1nc(C(=O)NC(C)(C)CO)cc1-c1cccs1	Active

target: T1, Cannabinoid receptor 1 (Homo sapiens, UniProt P21554); experiment: Partial agonist activity at human CB1 receptor expressed in CHO-K1 cells co-transfected with human Galpha16 assessed as intracellular calcium flux at 10 uM relative to control; type: functional, cell-based; details: filed as partial agonist
T1 sequence (P21554 whole entry): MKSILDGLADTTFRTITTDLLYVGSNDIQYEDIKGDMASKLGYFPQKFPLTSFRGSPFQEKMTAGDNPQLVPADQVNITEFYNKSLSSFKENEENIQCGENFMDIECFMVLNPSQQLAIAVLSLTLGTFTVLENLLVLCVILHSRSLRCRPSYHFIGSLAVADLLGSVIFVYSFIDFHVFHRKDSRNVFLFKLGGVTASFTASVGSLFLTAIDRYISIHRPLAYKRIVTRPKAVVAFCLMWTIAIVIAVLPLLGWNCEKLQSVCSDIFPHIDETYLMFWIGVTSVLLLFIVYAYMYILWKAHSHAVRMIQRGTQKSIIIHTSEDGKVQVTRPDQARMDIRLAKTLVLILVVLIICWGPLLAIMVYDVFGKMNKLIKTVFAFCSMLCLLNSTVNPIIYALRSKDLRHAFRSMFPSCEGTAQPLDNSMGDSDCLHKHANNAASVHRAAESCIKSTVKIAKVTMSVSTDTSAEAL

Compound	Emax [%]
CCCCCn1nc(C(=O)NC(C)(C)CO)cc1-c1ccco1	80

test system: Mus musculus; experiment: Antiinflammatory activity against DSS-induced colitis C57/BL6 mouse model assessed as reduction in disease activity index (DAI) score at 10 to 30 mg/kg, po administered for 9 days; type: functional, organism-based; details: dose 10-30 mg/kg, time 9.0 day

Compound	Activity
CCCCn1nc(C(=O)NC(C)(C)CO)cc1-c1cccs1	Active

target: T1, Cannabinoid receptor 1; experiment: Agonist activity at human CB1 receptor expressed in CHO-K1 cells co-transfected with human Galpha16 assessed as intracellular calcium flux at 10 uM relative to control; type: functional, cell-based; details: not given

Compound	Emax [%]
CCCCCn1nc(C(=O)NC(C)(C)CO)cc1-c1sccc1C	30

same assay, conditions: filed as agonist

Compound	Emax [%]
CCCCCn1nc(C(=O)NC(C)(C)CO)cc1-c1cccn1CC	90
CCCCCn1nc(C(=O)NC(C)(C)CO)cc1-c1cccs1	70
CCCCCCC(C)(C)c1ccc([C@@H]2C[C@H](C)CC[C@H]2CCCO)c(O)c1	100

target: T2, Cannabinoid receptor 2 (Homo sapiens, UniProt P34972); experiment: Partial agonist activity at human CB2 receptor expressed in CHO-K1 cells co-transfected with human Galpha16 assessed as intracellular calcium flux at 10 uM; type: functional, cell-based; details: not given
T2 sequence (P34972 whole entry): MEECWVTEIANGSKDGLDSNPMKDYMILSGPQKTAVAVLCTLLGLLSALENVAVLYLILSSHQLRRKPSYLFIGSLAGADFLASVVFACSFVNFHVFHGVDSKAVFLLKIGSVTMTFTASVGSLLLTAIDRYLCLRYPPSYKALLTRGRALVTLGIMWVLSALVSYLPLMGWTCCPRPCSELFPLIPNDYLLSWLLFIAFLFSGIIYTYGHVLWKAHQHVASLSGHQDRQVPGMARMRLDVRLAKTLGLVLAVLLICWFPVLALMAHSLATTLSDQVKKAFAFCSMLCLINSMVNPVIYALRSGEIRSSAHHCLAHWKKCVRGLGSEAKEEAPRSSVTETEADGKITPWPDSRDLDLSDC

Compound	Activity
COc1ccc(-n2nc(C(=O)NC(C)(C)CO)cc2-c2cccs2)cc1	inactive

target: T2, Cannabinoid receptor 2; experiment: Partial agonist activity at human CB2 receptor expressed in CHO-K1 cells co-transfected with human Galpha16 assessed as intracellular calcium flux at 10 uM relative to control; type: functional, cell-based; details: filed as partial agonist

Compound	Emax [%]
CCCCCn1nc(C(=O)NC(C)(C)CO)cc1-c1ccco1	50

test system: Mus musculus; experiment: Antiinflammatory activity against DSS-induced colitis in po dosed C57/BL6 mouse model assessed as suppression of TNF-alpha expression administered for 9 days by ELISA analysis; type: functional, organism-based; details: dose 10-30 mg/kg, time 9.0 day

Compound	Activity
CCCCn1nc(C(=O)NC(C)(C)CO)cc1-c1cccs1	Dose-dependent-effect

target: T2, Cannabinoid receptor 2; experiment: Antagonist activity at human CB2 receptor expressed in CHO cells co-transfected with human Galpha16 assessed as receptor desensitization by measuring reduction in calcium response at 10 uM; type: functional, cell-based; details: filed as antagonist

Compound	Activity
CCCCCCC(C)(C)c1ccc([C@@H]2C[C@H](C)CC[C@H]2CCCO)c(O)c1	Active

target: T1, Cannabinoid receptor 1; experiment: Agonist activity at human CB1 receptor expressed in CHO-K1 cells co-transfected with human Galpha16 assessed as intracellular calcium flux; type: functional, cell-based; details: not given

Compound	EC50 [µM]
CCCCn1nc(C(=O)NC(C)(C)CO)cc1-c1cccs1	> 100
CCCCCn1nc(C(=O)NC(C)(C)CO)cc1-c1cccn1CC	0.0375
CCCCCn1nc(C(=O)NC(C)(C)CO)cc1-c1cccs1	0.593
COc1ccc(-n2nc(C(=O)NC(C)(C)CO)cc2-c2cccs2)cc1	> 100
CCCCCn1nc(C(=O)NC(C)(C)CO)cc1-c1sccc1C	0.424

test system: Mus musculus; experiment: Antiinflammatory activity against DSS-induced colitis in po dosed C57/BL6 mouse model assessed as suppression of IL-1beta expression administered for 9 days by ELISA analysis; type: functional, organism-based; details: dose 10-30 mg/kg, time 9.0 day

Compound	Activity
CCCCn1nc(C(=O)NC(C)(C)CO)cc1-c1cccs1	Dose-dependent-effect

target: T2, Cannabinoid receptor 2; experiment: Agonist activity at human CB2 receptor expressed in CHO cells assessed as reduction in ERK1/2 phosphorylation at 10 uM by Western blot analysis; type: functional, cell-based; details: not given

Compound	Activity
CCCCn1nc(C(=O)NC(C)(C)CO)cc1-c1cccs1	inactive
CCCCCCC(C)(C)c1ccc([C@@H]2C[C@H](C)CC[C@H]2CCCO)c(O)c1	inactive

target: T2, Cannabinoid receptor 2; experiment: Agonist activity at human CB2 receptor expressed in HEK293 cells assessed as forskolin-stimulated cAMP accumulation preincubated with compound for 10 mins followed by forskolin induction and measured after 2 hrs by HTRF analysis; type: functional, cell-based; details: not given

Compound	EC50 [µM]
CCCCn1nc(C(=O)NC(C)(C)CO)cc1-c1cccs1	0.0151
CCCCCCC(C)(C)c1ccc([C@@H]2C[C@H](C)CC[C@H]2CCCO)c(O)c1	0.0163

target: T2, Cannabinoid receptor 2; experiment: Antagonist activity at human CB2 receptor expressed in CHO cells co-transfected with human Galpha16 assessed as increase in intracellular calcium mobilization; type: functional, cell-based; details: filed as antagonist

Compound	Activity
CCCCn1nc(C(=O)NC(C)(C)CO)cc1-c1cccs1	Active

target: T2, Cannabinoid receptor 2; experiment: Partial agonist activity at human CB2 receptor expressed in CHO-K1 cells co-transfected with human Galpha16 assessed as intracellular calcium flux; type: functional, cell-based; details: not given

Compound	EC50 [µM]
CCCCCn1nc(C(=O)NC(C)(C)CO)cc1-c1ccco1	0.056

target: T2, Cannabinoid receptor 2; experiment: Agonist activity at human CB2 receptor expressed in CHO-K1 cells co-transfected with human Galpha16 assessed as intracellular calcium flux; type: functional, cell-based; details: not given

Compound	EC50 [µM]
CCCCn1nc(C(=O)NC(C)(C)CO)cc1-c1cccs1	0.0162
CCCCCn1nc(C(=O)NC(C)(C)CO)cc1-c1cccn1CC	0.0077
CCCCCn1nc(C(=O)NC(C)(C)CO)cc1-c1cccs1	0.0088
COc1ccc(-n2nc(C(=O)NC(C)(C)CO)cc2-c2cccs2)cc1	> 100
CCCCCn1nc(C(=O)NC(C)(C)CO)cc1-c1sccc1C	0.274
CCCCCCC(C)(C)c1ccc([C@@H]2C[C@H](C)CC[C@H]2CCCO)c(O)c1	0.035

test system: Mus musculus; experiment: Antiinflammatory activity against DSS-induced colitis C57/BL6 mouse model assessed as reduction in body weight loss at 10 to 30 mg/kg, po administered for 9 days; type: functional, organism-based; details: dose 10-30 mg/kg, time 9.0 day

Compound	Activity
CCCCn1nc(C(=O)NC(C)(C)CO)cc1-c1cccs1	Active

test system: Mus musculus; experiment: Antiinflammatory activity against DSS-induced colitis C57/BL6 mouse model assessed as loss of goblet cells at 10 to 30 mg/kg, po administered for 9 days by H and E staining based analysis; type: functional, organism-based; details: dose 10-30 mg/kg, time 9.0 day

Compound	Activity
CCCCn1nc(C(=O)NC(C)(C)CO)cc1-c1cccs1	Active

target: T2, Cannabinoid receptor 2; experiment: Agonist activity at human CB2 receptor expressed in CHO-K1 cells co-transfected with human Galpha16 assessed as intracellular calcium flux at 10 uM relative to control; type: functional, cell-based; details: filed as agonist

Compound	Emax [%]
CCCCn1nc(C(=O)NC(C)(C)CO)cc1-c1cccs1	90
CCCCCn1nc(C(=O)NC(C)(C)CO)cc1-c1cccn1CC	76
CCCCCn1nc(C(=O)NC(C)(C)CO)cc1-c1cccs1	95
CCCCCn1nc(C(=O)NC(C)(C)CO)cc1-c1sccc1C	85
CCCCCCC(C)(C)c1ccc([C@@H]2C[C@H](C)CC[C@H]2CCCO)c(O)c1	100

test system: Mus musculus; experiment: Antiinflammatory activity against DSS-induced colitis C57/BL6 mouse model assessed as disruption of epithelial layer in colon at 10 to 30 mg/kg, po administered for 9 days by H and E staining based analysis; type: functional, organism-based; details: dose 10-30 mg/kg, time 9.0 day

Compound	Activity
CCCCn1nc(C(=O)NC(C)(C)CO)cc1-c1cccs1	Active

target: T2, Cannabinoid receptor 2; experiment: Antagonist activity at human CB2 receptor expressed in CHO cells co-transfected with human Galpha16 assessed as increase in intracellular calcium mobilization at 10 uM preincubated with compound for 10 mins followed by HBSS buffer wash and re-treated with compound at same concentration; type: functional, cell-based; details: filed as antagonist

Compound	Activity
CCCCCCC(C)(C)c1ccc([C@@H]2C[C@H](C)CC[C@H]2CCCO)c(O)c1	Active

target: T1, Cannabinoid receptor 1; experiment: Partial agonist activity at human CB1 receptor expressed in CHO-K1 cells co-transfected with human Galpha16 assessed as intracellular calcium flux; type: functional, cell-based; details: not given

Compound	EC50 [µM]
CCCCCn1nc(C(=O)NC(C)(C)CO)cc1-c1ccco1	0.957

target: T2, Cannabinoid receptor 2; experiment: Antagonist activity at human CB2 receptor expressed in CHO-K1 cells co-transfected with human Galpha16 assessed as intracellular calcium flux; type: functional, cell-based; details: not given

Compound	IC50 [µM]
CCCCn1nc(C(=O)NC(C)(C)CO)cc1-c1cccs1	> 100
CCCCCn1nc(C(=O)NC(C)(C)CO)cc1-c1cccn1CC	> 100
COc1ccc(-n2nc(C(=O)NC(C)(C)CO)cc2-c2cccs2)cc1	> 100
CCCCCn1nc(C(=O)NC(C)(C)CO)cc1-c1sccc1C	> 100
CCCCCCC(C)(C)c1ccc([C@@H]2C[C@H](C)CC[C@H]2CCCO)c(O)c1	> 100

target: T2, Cannabinoid receptor 2; experiment: Antagonist activity at human CB2 receptor expressed in CHO cells co-transfected with human Galpha16 assessed as increase in intracellular calcium mobilization at 10 uM; type: functional, cell-based; details: filed as antagonist

Compound	Activity
CCCCCCC(C)(C)c1ccc([C@@H]2C[C@H](C)CC[C@H]2CCCO)c(O)c1	Active

target: T1, Cannabinoid receptor 1; experiment: Antagonist activity at human CB1 receptor expressed in CHO-K1 cells co-transfected with human Galpha16 assessed as intracellular calcium flux; type: functional, cell-based; details: not given

Compound	IC50 [µM]
CCCCn1nc(C(=O)NC(C)(C)CO)cc1-c1cccs1	> 100
CCCCCn1nc(C(=O)NC(C)(C)CO)cc1-c1cccn1CC	> 100
CCCCCn1nc(C(=O)NC(C)(C)CO)cc1-c1cccs1	> 100
COc1ccc(-n2nc(C(=O)NC(C)(C)CO)cc2-c2cccs2)cc1	> 100
CCCCCn1nc(C(=O)NC(C)(C)CO)cc1-c1sccc1C	> 100
CCCCCn1nc(C(=O)NC(C)(C)CO)cc1-c1ccco1	> 100

test system: Mus musculus; experiment: Antiinflammatory activity against DSS-induced colitis C57/BL6 mouse model assessed as delay in hematochezia development at 10 to 30 mg/kg, po administered for 9 days; type: functional, organism-based; details: dose 10-30 mg/kg, time 9.0 day

Compound	Activity
CCCCn1nc(C(=O)NC(C)(C)CO)cc1-c1cccs1	Active

target: T2, Cannabinoid receptor 2; experiment: Antagonist activity at human CB2 receptor expressed in CHO cells co-transfected with human Galpha16 assessed as receptor desensitization by measuring reduction in calcium response; type: functional, cell-based; details: filed as antagonist

Compound	Activity
CCCCn1nc(C(=O)NC(C)(C)CO)cc1-c1cccs1	Active

test system: Mus musculus; experiment: Antiinflammatory activity against DSS-induced colitis C57/BL6 mouse model assessed as delay in diarrhoea development at 10 to 30 mg/kg, po administered for 9 days; type: functional, organism-based; details: dose 10-30 mg/kg, time 9.0 day

Compound	Activity
CCCCn1nc(C(=O)NC(C)(C)CO)cc1-c1cccs1	Active

test system: Mus musculus; experiment: Antiinflammatory activity against DSS-induced colitis in po dosed C57/BL6 mouse model assessed as suppression of IL-6 expression administered for 9 days by ELISA analysis; type: functional, organism-based; details: dose 10-30 mg/kg, time 9.0 day

Compound	Activity
CCCCn1nc(C(=O)NC(C)(C)CO)cc1-c1cccs1	Dose-dependent-effect
